SMILES strings stand for the structures.

In this assay the target is His-tagged recombinant human Gal-3 (hGal-3) (Homo sapiens, UniProt P17931). Description: Gal-3 HTRF assay: His-tagged hGal-3 binding to B-ASF, Anti-His terbium antibody / Streptavidin d2 detection.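 Further: compound preincubated 30 min with hGal-3, then 1 h with B-ASF, DMSO wells with B-ASF serving as positive control and those lacking B-ASF as negative control.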 The following applies: 15 nM hGal-3, 15 nM B-ASF, three replicates, room temperature. Background: TR-FRET usually uses a lanthanide donor and a delayed reading to cut background.
Sequence of His-tagged recombinant human Gal-3 (hGal-3) (P17931 whole entry): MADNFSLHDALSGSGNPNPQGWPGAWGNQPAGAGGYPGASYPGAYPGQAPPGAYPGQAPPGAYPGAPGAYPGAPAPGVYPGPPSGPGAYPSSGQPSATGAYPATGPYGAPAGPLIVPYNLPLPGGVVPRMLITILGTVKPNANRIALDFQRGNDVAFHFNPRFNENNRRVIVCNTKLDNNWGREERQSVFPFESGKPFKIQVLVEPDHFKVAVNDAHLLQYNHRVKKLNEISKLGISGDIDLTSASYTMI
In general, IC50 refers to the concentration needed to halve the response being measured. `CO[C@@H]1[C@@H](n2cc(-c3ccc4nccnc4c3)nn2)[C@@H](O)[C@@H](CO)O[C@H]1S[C@@H]1COC[C@H](n2cc(-c3ccccc3)nn2)[C@H]1O` [Example A8, (2R,3R,4S,5R,6S)-6-(((3R,4R,5S)-4-hydroxy-5-(4-phenyl-1H-1,2,3-triazol-1-yl)tetrahydro-2H-pyran-3-yl)thio)-2-(hydroxymethyl)-5-methoxy-4-(4-(quinoxalin-6-yl)-1H-1,2,3-triazol-1-yl)tetrahydro-2H-pyran-3-ol]: the 50% inhibitory concentration (IC50) amounted to 0.17 µM.

Turning to `CO[C@@H]1[C@@H](n2cc(-c3ccnnc3)nn2)[C@@H](O)[C@@H](CO)O[C@H]1S[C@@H]1COC[C@H](n2cc(-c3ccccc3)nn2)[C@H]1O` [Example A9, (2R,3R,4S,5R,6S)-6-(((3R,4R,5S)-4-hydroxy-5-(4-phenyl-1H-1,2,3-triazol-1-yl)tetrahydro-2H-pyran-3-yl)thio)-2-(hydroxymethyl)-5-methoxy-4-(4-(pyridazin-4-yl)-1H-1,2,3-triazol-1-yl)tetrahydro-2H-pyran-3-ol], the IC50 came out at 1.24 µM.

Take `CO[C@@H]1[C@@H](n2cc(-c3ccc4ccccc4c3)nn2)[C@@H](O)[C@@H](CO)O[C@H]1S[C@@H]1COC[C@H](n2cc(-c3ccccc3)nn2)[C@H]1O` [Example A10, (2R,3R,4S,5R,6S)-6-(((3R,4R,5S)-4-hydroxy-5-(4-phenyl-1H-1,2,3-triazol-1-yl)tetrahydro-2H-pyran-3-yl)thio)-2-(hydroxymethyl)-5-methoxy-4-(4-(naphthalen-2-yl)-1H-1,2,3-triazol-1-yl)tetrahydro-2H-pyran-3-ol]: the IC50 stood at 0.33 µM.

`COC(=O)C12CCC(c3cn(C4C(O)C(CO)OC(SC5COCC(n6cc(-c7ccccc7)nn6)C5O)C4OC)nn3)(CC1)CC2` [Example A11, methyl 4-(1-((2R,3R,4S,5R,6S)-3-hydroxy-6-(((3R,4R,5S)-4-hydroxy-5-(4-phenyl-1H)-1,2,3-triazol-1-yl)tetrahydro-2H-pyran-3-yl)thio)-2-(hydroxymethyl)-5-methoxytetrahydro-2H-pyran-4-yl)-1H-1,2,3-triazol-4-yl)bicyclo[2.2.2]octane-1-carboxylate]: the IC50 turned out to be 1.86 µM.

Regarding `CO[C@@H]1[C@@H](NC(=O)c2cc(F)c(F)c(F)c2)[C@@H](O)[C@@H](CO)O[C@H]1S[C@@H]1COC[C@H](n2cc(-c3ccccc3)nn2)[C@H]1O` [Example A12, 3,4,5-trifluoro-N-((2R,3R,4S,5R,6S)-3-hydroxy-6-(((3R,4R,5S)-4-hydroxy-5-(4-phenyl-1H-1,2,3-triazol-1-yl)tetrahydro-2H-pyran-3-yl)thio)-2-(hydroxymethyl)-5-methoxytetrahydro-2H-pyran-4-yl)benzamide], the half-inhibitory concentration (IC50) came out at 1.4 µM.

Turning to `COc1c(F)c(F)c(C(=O)N[C@H]2[C@@H](O)[C@@H](CO)O[C@@H](S[C@@H]3COC[C@H](n4cc(-c5ccccc5)nn4)[C@H]3O)[C@@H]2OC)c(F)c1F` [Example A13, 2,3,5,6-tetrafluoro-N-((2R,3R,4S,5R,6S)-3-hydroxy-6-(((3R,4R,5S)-4-hydroxy-5-(4-phenyl-1H-1,2,3-triazol-1-yl)tetrahydro-2H-pyran-3-yl)thio)-2-(hydroxymethyl)-5-methoxytetrahydro-2H-pyran-4-yl)-4-methoxybenzamide], the IC50 stood at 0.57 µM.

On to `COC1C(SC2CNCC(n3cc(-c4cccc(F)c4)nn3)C2O)OC(CO)C(O)C1n1cc(-c2cc(F)c(F)c(F)c2)nn1` (stereo not shown) [Example B1], for which the IC50 came out at 0.067 µM.

As for `COC1C(SC2CN(C(C)=O)CC(n3cc(-c4cccc(F)c4)nn3)C2O)OC(CO)C(O)C1n1cc(-c2cc(F)c(F)c(F)c2)nn1` (stereo not shown) [Example B2], the IC50 worked out at 0.037 µM.

Regarding `COC1C(SC2CN(C(C)=O)CC(n3cc(-c4cccc(F)c4)nn3)C2O)OC(CO)C(O)C1n1cc(-c2cccc(F)c2)nn1` [Example B3, 1-((3S,4R,5R)-3-(4-(3-fluorophenyl)-1H-1,2,3-triazol-1-yl)-5-(((2S,3R,4S,5R,6R)-4-(4-(3-fluorophenyl)-1H-1,2,3-triazol-1-yl)-5-hydroxy-6-(hydroxymethyl)-3-methoxytetrahydro-2H-pyran-2-yl)thio)-4-hydroxypipeddin-1-yl)ethan-1-one], the 50% inhibitory concentration (IC50) is 0.054 µM.

Turning to `CC(=O)N1C[C@@H](S[C@@H]2O[C@H](CO)[C@H](O)[C@H](n3cc(-c4cc(F)c(F)c(F)c4)nn3)[C@H]2OCC(=O)O)[C@H](O)[C@@H](n2cc(-c3cccc(F)c3)nn2)C1` [Example B4, 2-(((2S,3R,4S,5R,6R)-2-(((3R,4R,5S)-1-acetyl-5-(4-(3-fluorophenyl)-1H-1,2,3-triazol-1-yl)-4-hydroxypiperidin-3-yl)thio)-5-hydroxy-6-(hydroxymethyl)-4-(4-(3,4,5-trifluorophenyl)-1H-1,2,3-triazol-1-yl)tetrahydro-2H-pyran-3-yl)oxy)acetic acid], the 50% inhibitory concentration (IC50) was found to be 0.032 µM.

For the origin of these results see patent publication US11970511B2, “Tetrahydropyran-based thiodisaccharide mimics as Galectin-3 inhibitors” (BRISTOL-MYERS SQUIBB COMPANY, priority 2018, dated 2024).
